Experimental data reported in paper PMC9025941, “Influence of the Type of Amino Acid on the Permeability and Properties of Ibuprofenates of Isopropyl Amino Acid Esters” (International Journal of Molecular Sciences, 2022).
Read-outs that look alike come from different tables or passages of the source. Marks after values point to notes of the source that are not given here.

How the values were obtained:
[1] = pH 7.4
Method: (§1) The permeation experiments were carried out by using Franz diffusion cells (Phoenix DB-6, ABL&E-JASCO, Wien, Austria) with diffusion areas of 1 cm^2. […] The acceptor chamber content was stirred with a magnetic stirring bar at the same speed for all cells. […] The skin was then divided into 2 cm × 2 cm pieces. The skin samples were wrapped in aluminium foil and stored in a freezer at −20 °C until use, not longer than three months. […] The skin was mounted on the donor chamber. Undamaged skin pieces with an even thickness were chosen for experiments. The integrity of the skin was examined by checking its impedance, which was measured using an LCRmeter4080 (Conradelectronic, Germany), which was operated in parallel mode at an alternating frequency of 120 Hz (error at kΩ values < 0.5%). […] Only skin samples of impedance >3 kΩ were applied. […] After this time, the acceptor fluid (0.4 cm^3) aliquots were withdrawn and refilled with fresh buffer at the same pH.

[2] = Thermal stability (TG/DTG): decomposition onset and maximum mass-loss rate temperature
Method: In Figure 5, the thermal stability of ibuprofen and amino acid isopropyl ester ibuprofenates was determined and compared. All TG, DTG, and c-DTA curves are in the Supplementary Materials (Figures S87–S100). The decomposition onset temperature (Tonset) and the temperature of the maximum rate of mass loss (Tmax) were determined.

[3] = In vitro skin permeation, Franz diffusion cells
Method: as §1

[4] = 25 °C; cited from earlier work
[5] = cited from earlier work; for Solubility in Phosphate Buffer pH = 7.4: PBS pH 7.4, 32 °C; for Solubility in Water: 25 °C
[6] = shake flask; cited from earlier work

Structure (SMILES)	JSS, steady-state flux [1]	Tonset, the onset temperature of the thermal degradation [2]	Q%24 h, the percentage of the applied dose permeated after 24 h ([3]; 24 h, n = 3)	Cumulative Permeation Mass ([3]; 24 h, saturated solution in PBS pH 7.4, mass of compound, n = 3)	Cumulative Permeation Mass ([3]; 24 h, saturated solution in PBS pH 7.4, mass of ibuprofen, n = 3)	EF, enhancement factor ([3]; relative to IBU)	JSS, steady-state flux ([3]; saturated solution in PBS pH 7.4, n = 3)	Solubility in DMSO [4]	Solubility in chloroform [4]	Solubility in dichloromethane [4]	Solubility in diethyl ether [4]	Solubility in ethanol [4]	Solubility in ethyl acetate [4]	Solubility in n-hexane [4]	Solubility in toluene [4]	Solubility in Phosphate Buffer pH = 7.4 ([5]; g of active compound (IBU))	Solubility in Phosphate Buffer pH = 7.4 ([5]; g of compound)	Solubility in Water ([5]; g of active compound (IBU))	Solubility in Water ([5]; g of compound)	Log P (n-octanol-water partition coefficient) [6]
CC(C)Cc1ccc(C(C)C(=O)O)cc1.CSCC[C@H](N)C(=O)OC(C)C [[L-MetOiPr][IBU], L-methionine isopropyl ester ibuprofenate]	25.312 ± 0.661 µg IBU cm^−2 h^−1	146.2 °C																		
CC(C)Cc1ccc(C(C)C(=O)O)cc1.CC(C)OC(=O)[C@@H](N)C(C)C [[L-ValOiPr][IBU], L-valine isopropyl ester ibuprofenate]			13.698 ± 1.123%	684.642 ± 56.109 ^b µg·cm^−2	386.391 ± 31.666 ^b µg IBU·cm^−2	1.85	43.749 ± 2.445 µg IBU cm^−2 h^−1	+ [31] (soluble >100 mg cm^−3)	+ [31] (soluble >100 mg cm^−3)	+ [31] (soluble >100 mg cm^−3)	+/− [31] (partially soluble 33–100 mg cm^−3)	+ [31] (soluble >100 mg cm^−3)	+/− [31] (partially soluble 33–100 mg cm^−3)	− [31] (insoluble <33 mg cm^−3)	+ [31] (soluble >100 mg cm^−3)	2.821 ± 0.018 [31] g IBU∙dm^−3	4.998 ± 0.018 [31] g∙dm^−3	1.957 ± 0.007 [31] g IBU∙dm^−3	3.468 ± 0.007 [31] g∙dm^−3	1.154 ± 0.004 [31]
